According to patent publication US8993282B2, “Carotenoid fermentation method” (JX Nippon Oil & Energy Corporation, priority 2008, dated 2015):

Key:
[1] = test system: Paracoccus sp. strain Y-1071; experiment: Glutamate supplementation, test tube culture (Pharmamedia medium), carotenoid by HPLC; format: cell-based
Method: (§1) In the examples, carotenoids were quantified by high performance liquid chromatography (HPLC) as follows.
(§2) Two columns of Wakosil-II 5 SIL-100 (φ4.6×250 mm) (Wako Pure Chemical Industries, Ltd., Japan) were connected to each other for use as a column. Elution was performed by flowing an n-hexane-tetrahydrofuran-methanol mixed solution (40:20:1), which was a mobile phase, at a flow rate of 1.0 mL/minute at a constant temperature around room temperature. The measurement was performed as follows. Samples were each dissolved in tetrahydrofuran and then diluted 100-fold with the mobile phase. Each dilution was injected in a volume of 20 μL. The column eluate was detected at a wavelength of 470 nm. As a reference for quantification, astaxanthin (SIGMA, Cat. No. A9335) was used. The astaxanthin concentration of the reference solution was determined using the following equation after measuring the absorbance (A) of the reference solution at 477 nm and the area percentage % (B) of the astaxanthin peak at the time of HPLC analysis under the above conditions.
Next, a medium of the following composition (sucrose 30 g/L, Pharmamedia 20 g/L, ammonium sulfate 1.5 g/L, potassium dihydrogenphosphate 1.5 g/L, disodium hydrogenphosphate 12-hydrate 3.8 g/L, calcium chloride dihydrate 0.1 g/L, magnesium sulfate 7-hydrate 4.5 g/L, iron sulfate 7-hydrate 5 g/L, biotin 1 mg/L, silicon-based defoaming agent 1 g/L) was dispensed in 8 ml volumes into cotton-plugged test tubes having an inner diameter of 18 mm (2 tubes in total). One of the tubes was supplemented with monosodium L-glutamate monohydrate to 30 mmol/L, while the other was supplemented with nothing as a control.
The resulting culture solution was then inoculated in 0.1 ml volumes into the two test tube media and cultured with shaking at 28° C. for 4 days at 300 spm.
Each culture solution was measured for its carotenoid concentration by HPLC.

[2] = test system: mutant Paracoccus sp. strain Y-1071; experiment: Glutamate supplementation, 5 L fermentation tank culture, carotenoid by HPLC; format: cell-based
Method: as §1
as §2, with “conditions. Astaxanthin concentration (mg/L)=A/2150×B×100” for “conditions.”
A medium of the following composition (sucrose 20 g/L, filtered corn steep liquor 5 g/L, potassium dihydrogenphosphate 0.54 g/L, dipotassium hydrogenphosphate 12-hydrate 2.78 g/L, calcium chloride dihydrate 5.0 g/L, magnesium sulfate 7-hydrate 0.7 g/L, iron sulfate 7-hydrate 3.0 g/L, fatty acid-based defoaming agent 0.2 g/L, […]) was dispensed in 100 ml volumes into 500 mL cotton-plugged Erlenmeyer flasks and sterilized in an autoclave at 121° C. for 15 minutes to prepare a flask medium for seed culture in 2 flasks,
Next, a medium of the following composition (sucrose 40 g/L, corn steep liquor 30 g/L, ammonium sulfate 0.5 g/L, potassium dihydrogenphosphate 2.25 g/L, disodium hydrogenphosphate 12-hydrate 5.7 g/L, calcium chloride dihydrate 0.1 g/L, magnesium sulfate 7-hydrate 0.5 g/L, iron sulfate 7-hydrate 5 g/L, fatty acid-based defoaming agent 0.5 g/L) was dispensed in 2.0 L volumes into 5 L fermentation tanks (2 tanks in total). One of the fermentation tanks was supplemented with monosodium L-glutamate monohydrate to 50 mmol/L, while the other was supplemented with nothing as a control. These fermentation tanks were sterilized in an autoclave at 121° C. for 30 minutes,
A loopful of the mutant Paracoccus sp, strain Y-1071 selected in Example 3 was inoculated into the flask medium for seed culture and then cultured with rotary shaking at 28° C. for 2 days at 150 rpm. The resulting culture solution was then inoculated in 80 mL volumes into the individual fermentation tanks, followed by aerobic culture at 28° C. at an aeration volume of 1 vvm for 120 hours. […] during culture, the pH was continuously controlled with 15% aqueous ammonia. Glucose was added in an amount of 30 g on day 1, day 2 and day 3 of culture to prevent glucose depletion. The minimum number of agitation rotations was set to 100 rpm, and the number of agitation rotations was varied such that the dissolved oxygen concentration in the culture solution was maintained at 2 to 3 ppm. Bubbling was detected with a bubble sensor and suppressed by automatic addition of a fatty acid-based defoaming agent.
At the completion of culture, each culture solution was measured for its carotenoid concentration by HPLC.

[3] = Glutamic acid concentration 30 mmol/L, 28° C. for 4 days
[4] = Glutamic acid concentration 50 mmol/L, 120 hours

For `N[C@@H](CCC(=O)O)C(=O)O` [Glutamic acid, glutamic acid], the “produced carotenoid concentration compared to the sample without glutamic acid” value ([1]; 30 mmol/L) was “higher produced carotenoid concentration”, the 3-Hydroxyechinenone [1, 3] was 0.7 mg/L and the Adonixanthin [1, 3] was 18.4 mg/L. For the same compound, the Astaxanthin [1, 3] was 94.8 mg/L, the Asteroidenone [1, 3] was 1.5 mg/L and the Canthaxanthin [1, 3] was 10.0 mg/L. For the same compound, the Echinenone [1, 3] was 6.5 mg/L, the Phoenicoxanthin [1, 3] was 24.8 mg/L and the “Total carotenoid” value [1, 3] was 170.2 mg/L. The Zeaxanthin [1, 3] was 0.28 mg/L, the β-Carotene [1, 3] was 13.1 mg/L and the β-Cryptoxanthin [1, 3] was 0.10 mg/L. The “produced carotenoid concentration compared to the sample without glutamic acid” value ([2]; 50 mmol/L) was “higher produced carotenoid concentration”, the 3-Hydroxyechinenone [2, 4] was 10 mg/L and the Adonixanthin [2, 4] was 158 mg/L. For the same compound, the Astaxanthin [2, 4] was 805 mg/L, the Asteroidenone [2, 4] was 9 mg/L and the Canthaxanthin [2, 4] was 101 mg/L. For the same compound, the Echinenone [2, 4] was 62 mg/L, the Phoenicoxanthin [2, 4] was 217 mg/L and the “Total carotenoid” value [2, 4] was 1458 mg/L. The Zeaxanthin [2, 4] was 3 mg/L, the β-Carotene [2, 4] was 93 mg/L and the β-Cryptoxanthin [2, 4] was 0.5 mg/L.
